{"source": "patent US12358959B2", "about": "“Compositions and methods for oligodendrocyte development” (CHILDREN'S MEDICAL CENTER CORPORATION, priority 2016, dated 2025)", "tested_on": "oligodendrocyte precursors (OPCs)", "assay": "OPC proliferation in culture with recombinant TGM2, BrdU/PDGFRα double immunostaining", "assay_type": "cell-based, mouse", "details": "2 nM recombinant TGM2, 24 hrs", "protocol": "FIG. 14A depicts a TGM2 western blot on acutely isolated microglia, OPCs, astrocytes and oligodendrocytes. β-actin was used as loading control. FIG. 14B depicts representative images of BrdU (white) and PDGFRα (light gray) double immunostaining on OPC cultured for 24 hrs in proliferation media in the presence and absence of 2 nM recombinant TGM2. Scale bar, 100 μm. FIG. 14C depicts quantification of the percentage of BrdU^+ of total PDGFRα^+ OPCs. *P=0.0492, paired t-test, N=3 per genotype. Error bars are means±s.e.m.\nTo investigate whether TGM2 directly regulates OPC proliferation in a GPR56-dependent manner, OPCs derived from P5 Gpr56^+/− or Gpr56^−/− pups were cultured in the presence or absence of human recombinant TGM2 (FIGS. 15A and 15B) with the presence of BrdU. The cells were double immunostained for PDGFRα and BrdU (FIG. 14B)."}
{"substance": "Transglutaminase 2 [TG2]", "values": [{"measurement": "OPC proliferation (percentage of BrdU+ of total PDGFRα+ OPCs)", "setting": "proliferation media, OPCs printed as Gpr56−/− (first mention; cultures were Gpr56+/− or Gpr56−/−)", "result": "significantly increased"}, {"measurement": "OPC proliferation (percentage of BrdU+ of total PDGFRα+ OPCs)", "setting": "Gpr56−/− OPCs (second mention)", "result": "attenuated"}]}
